Read-outs that look alike come from different tables or passages of the source.
Assays:
[1] = tested on: T.b. brucei (strain 427) bloodstream form parasites; assay: Trypanosoma brucei assay, dose–response (this study); format: cell-based; conditions: for IC50: Trypanosoma brucei, read-out: T. brucei brucei IC50 (μM) This study
[2] = tested on: T.b. brucei (strain 427) bloodstream form parasites; assay: T.b. brucei single concentration screen (10 μM); conditions: for viability at 10 µM: Trypanosoma brucei, read-out: T.b.brucei % viability (10 µM); for T.b.brucei % viability (10 µM): single concentration 10 µM, % parasite viability relative to non-treated parasites
HeLa cells = assay: HeLa cell assay (cytotoxicity); format: cell-based; conditions: Homo sapiens
Description: HeLa cells were cultured in DMEM medium supplemented with 10% fetal bovine serum and antibiotics (penicillin/streptomycin/amphotericin B) at 37 °C in a 5% CO2 incubator. On the day prior to compound addition, cells were plated in 96-well plates at 2 × 10^4 cells per well. Compounds were added to the cells in 3-fold serial dilutions and incubation at 37 °C in a 5% CO2 incubator continued for 48 hours. Twenty μl resazurin reagent (0.5 mM resazurin in phosphate-buffered saline) was added to each well and, after a 2-hour incubation, fluorescence (Exc560/Em590) was measured in a plate reader. Percentage cell viability in drug-treated wells was calculated from the fluorescent readings obtained relative to those in wells containing control, untreated cells. Plots of % cell viability vs. log[compound] were used to determine IC50 values by non-linear regression analysis using GraphPad Prism.

T.b. brucei [3] = tested on: T.b. brucei; parameters: method as in https://www.pathogenbox.org/; conditions: ref https://www.pathogenbox.org/, cited from earlier work; for IC50: Table 1, kinetoplastid category, read-out: T. brucei brucei IC50 (μM) Pathogen Box
T.b. brucei [4] = tested on: T.b. brucei; parameters: method as in PMID 28674055; conditions: cited from earlier work; for IC50: Table 1, kinetoplastid category of the Pathogen Box, read-out: T. brucei brucei IC50 (μM) Duffy et al.
[5] = tested on: M. tuberculosis CTP synthase, PyrG; parameters: method as in PMID 28475832; conditions: cited from earlier work
[6] = Table 1, kinetoplastid category, 48 hours at 37 °C, resazurin
[7] = Table 1, HeLa cells, 48 hours, resazurin, read-out: HeLa IC50
[8] = HeLa, 48 h, read-out: HeLa IC50 (μM)

Structure (SMILES)	IC50 [1, 6] [µM]	viability at 10 µM [2] [%]	IC50 (HeLa cells; [7]) [µM]	IC50 (T.b. brucei [3]) [µM]	other results
O=C(Nc1ccc2c(c1)B(O)OC2)c1ccccc1C(F)(F)F [Compound 3, OB1OCc2ccc(NC(=O)c3ccccc3C(F)(F)F)cc12]	0.14	0	> 25	0.15	
CCc1ccccc1-n1c(C)cn2c3c(=O)n(C(C(=O)OC)C(C)C)c(=O)n(C)c3nc12 (stereo not drawn) [Compound 4, CCc1ccccc1n2c(C)cn3c4C(=O)N(C(C(C)C)C(=O)OC)C(=O)N(C)c4nc23]	0.03	0	> 25	< 0.13	
Cc1ncc(-c2ccnc(Nc3ccc(S(C)(=O)=O)cc3)n2)n1C(C)C [Compound 6, CC(C)n1c(C)ncc1c2ccnc(Nc3ccc(cc3)S(=O)(=O)C)n2]	0.084	2.2	1.2	0.26	
CNC(=O)c1nn(C)c2c1C(C)(C)Cc1cnc(Nc3ccc(N4CCN(C)CC4)cc3)nc1-2 [Compound 7, CNC(=O)c1nn(C)c2c3nc(Nc4ccc(cc4)N5CCN(C)CC5)ncc3CC(C)(C)c12]	0.048	0.62	4	< 0.13	
O=C(NCc1nnc2n1CCCCC2)c1ccc(-c2ccc(F)cc2)o1 [Compound 8, Fc1ccc(cc1)c2oc(cc2)C(=O)NCc3nnc4CCCCCn34]	0.11	1.3	> 25	0.1	
NCCN(C(=O)c1ccc(Cl)cc1Cl)c1ccc(OCc2ccc(Cl)cc2)cc1 [Compound 9, NCCN(C(=O)c1ccc(Cl)cc1Cl)c2ccc(OCc3ccc(Cl)cc3)cc2]	0.49	4	7.5	< 0.13	
Cc1ccc(S(=O)(=O)Nc2ccc(CN3CCN(C(=O)c4cccc(C#N)c4)CC3)cc2)cc1 [Compound 11, O=C(N1CCN(CC2=CC=C(NS(=O)(C3=CC=C(C)C=C3)=O)C=C2)CC1)C4=CC(C#N)=CC=C4]	0.12	6.6	> 25	0.14	
COc1ccc(C(=N)N)cc1-c1cn(-c2ccc(C(=N)N)cc2)nn1 [Compound 12, COc1ccc(cc1c2cn(nn2)c3ccc(cc3)C(=N)N)C(=N)N]	0.54	9	> 25	0.25	
O=C(NCCc1ccn(-c2ccccc2)n1)C1CCCCC1 [Compound 13, O=C(NCCc1ccn(n1)c2ccccc2)C3CCCCC3]	0.21	2	> 25	0.15	
CS(=O)(=O)c1ccccc1C(=O)N(Cc1ccccc1)c1ccccc1 [Compound 14, CS(=O)(=O)c1ccccc1C(=O)N(Cc2ccccc2)c3ccccc3]	1.2	18	> 25	0.56	
COc1ccc(C2=NN(C3CCCCCC3)C(=O)[C@@H]3CC=CC[C@H]23)cc1OCCCCOc1ccc(-c2nnn[nH]2)cc1 [Compound 15, COC1=C(OCCCCOC2=CC=C(C3=NNN=N3)C=C2)C=C(C([C@@H]4[C@H]5CC=CC4)=NN(C6CCCCCC6)C5=O)C=C1]		6		0.02	IC50 ([1]; 48 h): 0.12 µM; IC50 (HeLa cells; [8]): > 25 µM
N=C(N)Nc1ccc(-c2ccc(-c3ccc(N=C(N)N)c(Cl)c3)o2)cc1Cl [Compound 16, NC(=N)Nc1ccc(cc1Cl)c2oc(cc2)c3ccc(N=C(N)N)c(Cl)c3]	0.65	1.2	17	0.6	
CCC(=O)Nc1ccccc1C(=O)Nc1ccccn1 [Compound 17, CCC(=O)Nc1ccccc1C(=O)Nc2ccccn2]	0.38	7	> 25	2.46	
COc1ccc(S(=O)(=O)Nc2ccc(CN3CCN(C(=O)c4cccc(C#N)c4)CC3)cc2)cc1 [Compound 18, O=C(N1CCN(CC2=CC=C(NS(=O)(C3=CC=C(OC)C=C3)=O)C=C2)CC1)C4=CC(C#N)=CC=C4]	0.44	6.5	> 25	0.5	
CCCCN(CCCC)c1c(C#N)cc(S(=O)(=O)Nc2ccccc2)cc1C#N [Compound 19, CCCCN(CCCC)c1c(cc(cc1C#N)S(=O)(=O)Nc2ccccc2)C#N]	1.3	6	> 25	0.26	
Cc1noc(C)c1COc1cccc(C(=O)N=c2[nH]cccc2C)c1 [Compound 20, Cc1onc(C)c1COc2cccc(c2)C(=O)Nc3ncccc3C]	0.62	7	> 25	2.07	
CO[C@@H](C(=O)N1Cc2[nH]nc(NC(=O)c3ccc(N4CCN(C)CC4)cc3)c2C1)c1ccccc1 [Compound 21, CO[C@@H](C(=O)N1Cc2[nH]nc(NC(=O)c3ccc(cc3)N4CCN(C)CC4)c2C1)c5ccccc5]	0.3	4.5	> 25	1.02	
CNC(=O)C1Cc2ccccc2N1C(=O)Cc1ccc(F)cc1 (stereo not drawn) [Compound 22, CNC(=O)C1Cc2ccccc2N1C(=O)Cc3ccc(F)cc3]	0.71	7	> 25	0.49	
c1ccc(Oc2ccc(-c3cc(C4CCOCC4)[nH]n3)cc2)cc1 [Compound 23, C1CC(CCO1)c2cc(n[nH]2)c3ccc(Oc4ccccc4)cc3]		82		7.58	T.b.brucei % viability (10 µM) [2]: did not sufficiently reduce cell viability; IC50 (T.b. brucei [4]): ≥ 1 µM
Cc1nn2c(=O)c3c([nH]c2c1-c1ccc(Cl)cc1)CCCC3 [Compound 24, Cc1nn2C(=O)C3=C(CCCC3)Nc2c1c4ccc(Cl)cc4]		19			T.b.brucei % viability (10 µM) [2]: did not sufficiently reduce cell viability; IC50 (T.b. brucei [4]): ≥ 1 µM; T.b. brucei activity in words, Pathogen Box (T.b. brucei [3]): sub-micromolar range
COc1ccc(C2=NN(C3CCCCCC3)C(=O)C2(C)C)cc1OCCCCOc1ccc(-c2nn[nH]n2)cc1 [Compound 25, COC1=C(OCCCCOC2=CC=C(C3=NNN=N3)C=C2)C=C(C4=NN(C5CCCCCC5)C(C4(C)C)=O)C=C1]	1.7	8.5	> 25	0.79	
Cc1nn2c(O)c3c(nc2c1-c1ccc(F)cc1)CCCC3 [Compound 28, Cc1nn2c(O)c3CCCCc3nc2c1c4ccc(F)cc4]	4.6	12	> 25	1.94	
CC1=Nc2ccc(Cl)cc2C(O)(c2ccc(C)cc2)N1CCN1CCCCC1 (stereo not drawn) [Compound 29, CC1=Nc2ccc(Cl)cc2C(O)(N1CCN3CCCCC3)c4ccc(C)cc4]	0.98	2	15	0.98	
c1ccc(Oc2ccc(-c3cc(N4CCNCC4)[nH]n3)cc2)cc1 [Compound 30, C1CN(CCN1)c2cc(n[nH]2)c3ccc(Oc4ccccc4)cc3]	2.3	0.3	11	0.99	
CN1CCN(S(=O)(=O)c2ccc(-c3ccc4c(Nc5ncc(Cl)cn5)ccnc4c3)cc2)CC1 [Compound 31, CN1CCN(CC1)S(=O)(=O)c2ccc(cc2)c3ccc4c(Nc5ncc(Cl)cn5)ccnc4c3]	2.2	6.4	> 25	3.78	
CCOC(=O)c1noc(N)c1-c1ccccc1 [Compound 34, CCOC(=O)c1noc(N)c1c2ccccc2]	0.41	12	> 25	1.22	T.b. brucei inhibition in words, this study [1]: mid-nanomolar inhibitor; T.b. brucei activity in words, Pathogen Box (T.b. brucei [3]): low micromolar range
O=C(COc1cccc(F)c1)Nc1nc(-c2ccccn2)cs1 [Compound 43, Fc1cccc(OCC(=O)Nc2nc(cs2)c3ccccn3)c1]		3			Inhibition of M. tuberculosis CTP synthase, PyrG [5]: moderate inhibitors; IC50 (HeLa cells; [8]): > 25 µM
O=C(Nc1ccccc1)c1ccc(-c2cc3ccncc3cc2OC2CCNCC2)s1 [Compound 51, O=C(Nc1ccccc1)c2ccc(s2)c3cc4ccncc4cc3OC5CCNCC5]		1			T.b. brucei inhibition in words, this study [1]: selectively inhibited T.b. brucei, albeit moderately; IC50 ([1]; Table 2, remaining Pathogen Box, 48 hours at 37 °C, resazurin): 1 µM; Selectivity index ([1]; calculated as IC50(HeLa)/IC50(T.bb)): 7.5; IC50 (HeLa cells; Table 2, HeLa cells, 48 hours, resazurin, read-out: HeLa IC50): 7.5 µM; T.b. brucei inhibition in words, Duffy et al. (T.b. brucei [4]): moderate inhibition
O=C(Nc1ccc(C(F)(F)F)c(C(F)(F)F)c1)c1cc(Cl)ccc1O [Compound 66, Oc1ccc(Cl)cc1C(=O)Nc2ccc(c(c2)C(F)(F)F)C(F)(F)F]		42			T.b. brucei inhibition in words, Duffy et al. (T.b. brucei [4]): sub-micromolar inhibitor

From publication PMC6301270 (MedChemComm, 2018)
